The source made the active and inactive calls. How the calls were made is not given here.
Assay: growth inhibition of yeast carrying parasite Hsp90, dose response, anti-malarial Hsp90 inhibitor project, ATP luminescence, 48 h, cherry-picked samples (AID 540268);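 on activity change, negative = inhibition: 0% = neutral control wells and -100% = positive control wells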
Details: yeast expressing the parasite Hsp90, ATP luminescence
O=C(O)c1cccc2c1Cc1cc(Cl)ccc1-2 gave an AC50 of 1.13 µM. Work on CCCOC(=O)c1ccc(Oc2cn[nH]c2-c2ccc(OC)cc2O)cc1 yielded an AC50 of 6 µM. Work on Clc1ccc(N=c2ssnc2Cl)nc1 yielded an AC50 of 3.19 µM. For O=C1C2C3C=CC(C3)C2C(=O)N1CN(Cc1ccccc1)CN1C(=O)C2C3C=CC(C3)C2C1=O (stereo unspecified), the AC50 was 16.6 µM. For COc1ccc(C(=O)N/N=C/c2sc3ccccc3c2O)cc1, the AC50 was 2.35 µM. In the case of CC[C@@H](C)[C@H](NC(=O)OC(C)(C)C)c1nnc(S(=O)(=O)Cc2cc(C)ccc2C)o1, the AC50 was 5.46 µM. Compound CC1(c2nnc(Cc3ccccc3)o2)CC(c2ccccc2[N+](=O)[O-])=NO1 (stereo unspecified) has an AC50 of 1.77 µM. In the case of O=S(=O)(NC1CC2CCC1C2)c1ccc(Cl)cc1 (stereo unspecified), the AC50 was 3.46 µM. Cc1ccc(C(C[N+](=O)[O-])Sc2ccc(N)cc2)cc1 (stereo unspecified) gave an AC50 of 6.83 µM. O=C(OCC(=O)c1c[nH]c2ccccc12)c1ccc([N+](=O)[O-])s1 showed an AC50 of 4.09 µM. Work on COc1ccc(CCN2C(=O)C=CC2=O)cc1OC yielded an AC50 of 1.41 µM. In the case of O=C(CCc1ccccc1)NC(c1cccs1)c1cc(Cl)c2cccnc2c1O (stereo unspecified), the AC50 was 15.5 µM. In the case of O=C(O)c1cn(-c2ccc(N3CCCC3)c(F)c2)c2c(F)c(F)c(F)cc2c1=O, the AC50 was 4.36 µM. In the case of O=C1C=CC(=Nc2ccc(F)cc2)O1, the AC50 was 1.24 µM. Work on CC1=NOC(=O)/C1=C\c1ccc(-c2ccc(Br)cc2)o1 yielded an AC50 of 4.51 µM. O=C(OCC(=O)C12CC3CC(CC(C3)C1)C2)c1ccc(O)cc1O gave an AC50 of 15.6 µM. For NC(=O)c1ccc(N=Cc2ccc([N+](=O)[O-])s2)cc1, the AC50 was 1.48 µM. CSc1nnc2c3cc(F)ccc3n(C)c2n1 showed an AC50 of 5.49 µM. With N/C(Cc1ccc(Cl)c(Cl)c1)=N\OC(=O)c1cccs1 the AC50 was 2.22 µM. In the case of O=C(Nc1ccccc1)C(Cl)C(=O)c1ccccc1 (stereo unspecified), the AC50 was 0.532 µM. Work on Oc1c(C(Nc2cccc(C(F)(F)F)c2)c2ccncc2)ccc2cccnc12 (stereo unspecified) yielded an AC50 of 5.15 µM. Work on Cc1cccc(NC(=O)c2nc(S(=O)(=O)Cc3ccccc3)ncc2Cl)c1 yielded an AC50 of 3.15 µM. Compound CC(=NNC(=S)Nc1ccccc1Cl)c1ccccn1 has an AC50 of 3.91 µM. With CC1(C)C=Cc2c(ccc3c2OC[C@H](c2ccc(O)cc2O)C3)O1 the AC50 was 4.6 µM. With Cc1ccc2[nH]c(C)c(/C=N/Nc3nc4ccccc4s3)c2c1 the AC50 was 2.63 µM. With Cc1cc(Cl)ccc1C(=O)C1CCCN(C(=O)c2cncs2)C1 (stereo unspecified) the AC50 was 4.62 µM. For CC1=C/C(=N\OS(=O)(=O)c2ccccc2)C(C)=CC1=O, the AC50 was 0.597 µM. CC1CCCCC1NC(=O)/C(C#N)=C/c1ccccc1F (stereo unspecified) showed an AC50 of 0.87 µM. For O=c1c2ccccc2nnn1CSc1nnc(COc2ccc(Cl)cc2)n1Cc1ccco1, the AC50 was 3.31 µM. For COc1ccc2c(c1)OC[C@H]1[C@H]2N2C(=O)c3cc(OC)ccc3NC(=O)[C@@]2(C)[C@H]1c1ccccc1, the AC50 was 24.7 µM. Compound CC1CCN(C2CC(=O)N(c3ccc(Br)cc3Br)C2=O)CC1 (stereo unspecified) has an AC50 of 0.774 µM. With Cc1ccc(NC(=O)c2nc(S(=O)(=O)Cc3ccccc3)ncc2Cl)cc1 the AC50 was 4.12 µM. Cc1[nH]n(-c2ccc([N+](=O)[O-])cc2)c(=O)c1C=NCCN1CCN(C(=O)c2ccccc2F)CC1 showed an AC50 of 6.44 µM. Compound O=[N+]([O-])c1cc(Cc2ccccc2)cc(C=Nc2ccc(N3CCOCC3)cc2)c1O has an AC50 of 3.46 µM. Compound O=C(Nc1nnc(-c2ccc(F)cc2)o1)c1cc(Cl)sc1Cl has an AC50 of 2.43 µM. For C(=NN=C1c2ccccc2-c2ccccc21)c1c[nH]c2ccccc12, the AC50 was 2.72 µM. Work on Oc1ccc(Br)cc1/C=N/Nc1ccccn1 yielded an AC50 of 2.67 µM. Compound O=C1C=CC(=O)N1N(c1ccccc1)c1ccccc1 has an AC50 of 3.38 µM. In the case of CN(C)CC1Oc2ccccc2OC1(O)c1ccccc1 (stereo unspecified), the AC50 was 2.98 µM. For Cc1sc(NC(=O)c2ccco2)c(C(c2cccnc2)N2CCC(C)CC2)c1C (stereo unspecified), the AC50 was 7.74 µM. Work on O=C(c1ccccc1)c1ccccc1N1C(=O)C=CC1=O yielded an AC50 of 1.71 µM. With COc1cc(N(C)C)ccc1C=c1c2ccccc2n2c1cc(-c1ccccc1)[n+]2C the AC50 was 7.55 µM. With CCn1c(CNc2ccc(Cl)cc2)nnc1SCc1ccc(C)cc1 the AC50 was 8.23 µM. CCCCC(=O)NC(c1ccco1)c1cc(Cl)c2cccnc2c1O (stereo unspecified) gave an AC50 of 4.6 µM. Work on COc1ccccc1OCc1cc(C(=O)N2CCN(C)C(c3ccccc3)C2)no1 (stereo unspecified) yielded an AC50 of 3.05 µM. Compound CC(=NNc1nc2ccccc2o1)c1ncccn1 has an AC50 of 1.33 µM. Compound O=C1C=CC(=O)N1c1ccc(N2CCCCC2)cc1 has an AC50 of 0.312 µM. Work on CCc1ccc(OCC(=O)NNC(=S)NC(=O)C2CC2)c(Br)c1 yielded an AC50 of 1.12 µM. With CC1(C)N=C(SCC(=O)Nc2ccc(Cl)cc2)C(c2ccc(Cl)cc2)=N1 the AC50 was 8.73 µM. COc1ccc(N(C(=O)c2ccncc2)S(=O)(=O)c2ccccc2)cc1 gave an AC50 of 1.66 µM. Compound Cc1cc(C)c2c(N=NN3CCOCC3)[nH]nc2n1 has an AC50 of 7.65 µM. O=[N+]([O-])c1cc(-n2cnnn2)ccc1N1CCC(Cc2ccccc2)CC1 gave an AC50 of 4.23 µM. O=C(OCc1ccccc1)c1ccc(NCc2cc(O)ccc2O)cc1 gave an AC50 of 5.09 µM. Compound O=C1/C(=C\c2cccc(O)c2O)SC(=S)N1Cc1ccccc1 has an AC50 of 9.6 µM. For Oc1c(Cl)cccc1Cc1cc(Cl)cc(Cl)c1O, the AC50 was 0.618 µM. Compound O=C(Nc1nc(-c2ccccn2)cs1)c1ccc(Br)s1 has an AC50 of 2.18 µM. With COc1ccc(C(=O)/C=C2\C(=O)Nc3ccc(Br)cc32)cc1 the AC50 was 2.22 µM. With CCCC1COC(Cn2cncn2)(c2ccc(Cl)cc2Cl)O1 (stereo unspecified) the AC50 was less than 0.195 µM. CC(C)(C)c1cc(-c2nc(N)nc(N)n2)c(O)c(C(C)(C)C)c1 gave an AC50 of 15.1 µM. CC(=O)N1N=C(c2ccccc2)OC1c1ccc([N+](=O)[O-])s1 (stereo unspecified) showed an AC50 of 8.65 µM. In the case of Cn1c(SCC(=O)N/N=C/c2ccc([N+](=O)[O-])s2)nnc1-c1ccc(Cl)cc1, the AC50 was 2.3 µM. For COc1ccccc1C(=O)NNC(=S)NC(=O)c1cccs1, the AC50 was 6.92 µM. With CC(C)(C)c1cc(NCc2ccccn2)n2ncc(-c3ccccc3)c2n1 the AC50 was 1.49 µM. Work on O=[N+]([O-])c1cc(Cl)c(O)c2ncccc12 yielded an AC50 of 1.81 µM. Compound CC(=O)NC(c1ccc(Cl)cc1)c1ccc2cccnc2c1O (stereo unspecified) has an AC50 of 2.58 µM. Compound COc1cc2cc(C(=O)N3CC(COS(C)(=O)=O)c4ccc(O)cc43)[nH]c2c(OC)c1OC (stereo unspecified) has an AC50 of 1.55 µM. O=C1CC(c2ccccc2)=NN1c1nc(-c2ccccc2)cs1 showed an AC50 of 1.14 µM. O=C(c1ccc(Br)cc1)C(CN1CCOCC1)c1ccccc1 (stereo unspecified) showed an AC50 of 2.91 µM. For CC(=O)NC(c1ccc2ccccc2c1)c1ccc2cccnc2c1O (stereo unspecified), the AC50 was 1.75 µM. Work on Cc1occc1-c1nnc(-c2cc([N+](=O)[O-])cc([N+](=O)[O-])c2)o1 yielded an AC50 of 2.4 µM. With O=[N+]([O-])/C=C/c1c(Cl)cccc1Cl the AC50 was 0.457 µM. Compound C/C(=N\Nc1ncnc2sc(C)c(C)c12)c1ccccn1 has an AC50 of 2.01 µM. CCOC(=O)c1ccc(NC(=O)CC2C(=O)OCCN2CC)cc1 (stereo unspecified) showed an AC50 of 4.28 µM. In the case of C[CH2][Hg][S]c1ccccc1C(=O)O, the AC50 was 4.9 µM. With CCCCC(=O)NC(c1ccccc1OC)c1ccc2cccnc2c1O (stereo unspecified) the AC50 was 4.45 µM. With Cc1cc(N2CCN(c3cccc(C)c3C)CC2)nc(-c2ccccc2)n1 the AC50 was 2.47 µM. For Clc1ccc(C(Cn2ccnc2)OCc2csc3c(Cl)cccc23)c(Cl)c1 (stereo unspecified), the AC50 was less than 0.195 µM. With COc1ccc2oc(=O)c(-c3csc(Nc4cccc(O)c4)n3)cc2c1 the AC50 was 7.93 µM. In the case of CN(C)c1ccc(/C=C/c2ccc3c4ccccc4ccc3[n+]2-c2ccccc2)cc1, the AC50 was 3.47 µM. For O=C1NC(=S)NC(=O)C1=Cc1ccc(Br)s1, the AC50 was 4.48 µM. With CCOC(=O)/C(=C\c1cccnc1)C(=O)c1cc(C(C)=O)c(Nc2ccccc2)s1 the AC50 was 3.93 µM. For CCOC(=O)c1ccc(N2C(=O)CC(N3CCC(Nc4ccc(F)cc4)CC3)C2=O)cc1 (stereo unspecified), the AC50 was 4.58 µM. With O=[N+]([O-])/C=C/c1cn(Cc2ccccc2)c2ccccc12 the AC50 was 5.99 µM. For O=[N+]([O-])c1ccc(NC(=S)NCCc2ccc(Cl)cc2)cc1, the AC50 was 4.25 µM. Clc1ccc(CSC(Cn2ccnc2)c2ccc(Cl)cc2Cl)cc1 (stereo unspecified) gave an AC50 of 0.576 µM. Compound Cc1cccc(C(=O)NC(=S)NNC(=O)Cc2ccccc2)c1 has an AC50 of 4.34 µM. Compound Cc1ccc(-n2nnnc2C(Cl)(Cl)c2nnnn2-c2ccc(C)cc2)cc1 has an AC50 of 1.12 µM. O=C1C=CC(=O)C2C1C1(Cl)C(Cl)=C(Cl)C2(Cl)C1(Cl)Cl (stereo unspecified) showed an AC50 of 8.65 µM. In the case of COc1ccc2sc(-c3ccccc3OC)c(-c3ccc(O)cc3)c2c1, the AC50 was 8.46 µM. Work on CN(C)/C=C/C(=O)c1ccc2noc(-c3ccccc3)c2c1 yielded an AC50 of 8.37 µM. Compound CC(=O)N1CCN(c2ccc(OC[C@H]3CO[C@](Cn4ccnc4)(c4ccc(Cl)cc4Cl)O3)cc2)CC1 has an AC50 of 1.29 µM. Compound Oc1c(C(c2ccccc2)N2CCOCC2)ccc2ccccc12 (stereo unspecified) has an AC50 of 6.53 µM. Work on COc1ccc(S(=O)(=O)NC2CC3CCC2C3)cc1Cl (stereo unspecified) yielded an AC50 of 1.56 µM. Compound O=[N+]([O-])c1ccc(C=Nc2ccc(Cl)cc2Cl)s1 has an AC50 of 8.6 µM. Cc1cc(NC(c2ccc(Cl)cc2)c2ccc3cccnc3c2O)no1 (stereo unspecified) showed an AC50 of 4.2 µM. Work on Cc1c(C(=O)NCCSCc2cccc(C(F)(F)F)c2)cnn1-c1ccc(Cl)cc1 yielded an AC50 of 8.59 µM. CC1=CC(=O)C=C(C)C1=NOS(=O)(=O)c1ccccc1 showed an AC50 of 1.4 µM. Work on NC(=Nc1nc(-c2ccccn2)cc2ccccc12)c1ccccn1 yielded an AC50 of 3.78 µM. With Cc1ccccc1CS(=O)(=O)c1ncc(Cl)c(C(=O)Nc2ccc(F)cc2)n1 the AC50 was 4.06 µM. Cc1c(C)c2cccnc2c2ncccc12 gave an AC50 of 4.22 µM. With CC(C)C(=O)NC(c1ccc(Cl)cc1Cl)c1ccc2cccnc2c1O (stereo unspecified) the AC50 was 15.3 µM. Cc1ccc(C2=NC(C)(C)N=C2SCC(=O)Nc2ccc(Cl)cc2)cc1 gave an AC50 of 26.2 µM. Compound CCOC(=O)c1ccc(N2C(=O)C=CC2=O)cc1 has an AC50 of less than 0.195 µM. In the case of Cc1cccc(C)c1OCC(=O)NNC(=S)NC(=O)C1CC1, the AC50 was 1.35 µM. For Oc1ccc(/C=C/c2ccc3cccc(O)c3n2)cc1Br, the AC50 was 4.26 µM. For C=CC(n1cncn1)C(O)(c1ccccc1)c1ccccc1 (stereo unspecified), the AC50 was 1.03 µM. O=c1[nH]c(-c2ccccn2)nc(C(F)(F)F)c1Br showed an AC50 of 4 µM. With CC1CCN(C(CC(=O)c2ccccc2)C(=O)c2ccccc2)CC1 (stereo unspecified) the AC50 was 3.28 µM. In the case of O=C(N/N=C/c1ccc(O)c2ncccc12)c1cccc(Br)c1, the AC50 was 5.08 µM. O=C1c2cc(F)ccc2-n2c1nc1ccccc1c2=O gave an AC50 of 2.96 µM. For O=C(OCn1ncc(Cl)c(Cl)c1=O)c1cccc(C(F)(F)F)c1, the AC50 was 5.36 µM.

Same assay, conditions: yeast expressing the parasite Hsp90, ATP luminescence, at 26 µM (top of the series)
For Cc1ccc(/C=C2/NC(=O)N(Cc3ccc(Br)cc3)C2=O)o1, the activity change, negative = inhibition was 47.3% (inactive). With Cc1cccc(C)c1NC(=O)COC(=O)c1ccc([N+](=O)[O-])o1 the activity change, negative = inhibition was -33.6% (inactive). For COc1ccc(C(=O)Nc2cc(C(=O)c3ccccc3)c(C)oc2=O)cc1, the activity change, negative = inhibition was 36.8% (inactive). For Cc1cccc(NC(=S)N/N=C/c2ccc([N+](=O)[O-])s2)c1, the activity change, negative = inhibition was -14.3% (inactive). In the case of C/C(CC(=O)Nc1cc(C)ccn1)=N\NC(=O)c1cccc(C)c1O, the activity change, negative = inhibition was -51.7% (inactive).

From PubChem BioAssay AID540268 (Broad Institute, 2011)
